Columns and labels:
Cathepsin B = Cathepsin B (Bos taurus, UniProt P07688); test: Cathepsin B inhibition, Z-Arg-Arg-AFC (Table PKC1); format: biochemical; conditions: pH 6.0 phosphate buffer, substrate Z-Arg-Arg-AFC; read-out: Ki CB (Cathepsin B)
Protocol: Various concentrations of inhibitors in dimethylsulfoxide (DMSO) were added to the assay mixture, which contained buffer and substrate. The reaction was started by the addition of the enzyme and the hydrolysis rates were followed spectrophotometrically or fluorimetrically. 88 mM KH2 PO4, 12 mM Na2 HPO4, 1.33 mM EDTA, 2.7 mM cysteine, pH 6.0 was used as a buffer for cathepsin B; and 20 mM Hepes, 10 mM CaCl2, 10 mM β-mercaptoethanol, pH 7.2 buffer was utilized for calpain I and calpain II.
All peptide thioester hydrolysis rates were measured with assay mixtures containing 4,4'-dithiodipyridine [e324=19800 M-1 cm-1; Grasetti & Murray, Arch. Biochem. Biophys. 119, pp 41-49 (1967)]. Papain was assayed with Bz-Arg-AMC or Bz-Arg-NA [Kanaoka et al., Chem. Pharm. Bull. 25, 3126-3128 (1977)], and the AMC (7-amino-4-methylcoumarin) release was followed fluorimetrically (excitation at 380 nm, and emission at 460 nm). Cathepsin B was assayed with Z-Arg-Arg-AFC [Barrett and Kirschke, Methods Enzymol. 80, 535-561 (1981)], and the AFC (7-amino-4-trifluoromethylcoumarin) release was followed fluorimetrically (excitation at 400 nm, and emission at 505 nm). Calpain I from human erythrocytes and calpain II from rabbit were assayed using Suc-Leu-Tyr-AMC [Sasaki et al., J. Biol. Chem. 259, 12489-12494 (1984), hereby incorporated by reference], and the AMC (7-amino-4-methylcoumarin) release was followed fluorimetrically (excitation at 380 nm, and emission at 460 nm). Enzymatic hydrolysis rates were measured at various substrate and inhibitor concentrations, and Ki values were determined by Dixon plot.

[1] = target: T1, Calpain I from human erythrocytes (Homo sapiens, UniProt P07384); test: Calpain I Ki (Table 1B(i)); format: biochemical; conditions: Suc-Leu-Tyr-amidomethylcoumarin, HEPES pH 7.2
T1 construct: Calpain I from human erythrocytes and calpain II from rabbit were assayed using Suc-Leu-Tyr-AMC; from tissue; host or cells: human erythrocytes
T1 sequence (P07384 1-714): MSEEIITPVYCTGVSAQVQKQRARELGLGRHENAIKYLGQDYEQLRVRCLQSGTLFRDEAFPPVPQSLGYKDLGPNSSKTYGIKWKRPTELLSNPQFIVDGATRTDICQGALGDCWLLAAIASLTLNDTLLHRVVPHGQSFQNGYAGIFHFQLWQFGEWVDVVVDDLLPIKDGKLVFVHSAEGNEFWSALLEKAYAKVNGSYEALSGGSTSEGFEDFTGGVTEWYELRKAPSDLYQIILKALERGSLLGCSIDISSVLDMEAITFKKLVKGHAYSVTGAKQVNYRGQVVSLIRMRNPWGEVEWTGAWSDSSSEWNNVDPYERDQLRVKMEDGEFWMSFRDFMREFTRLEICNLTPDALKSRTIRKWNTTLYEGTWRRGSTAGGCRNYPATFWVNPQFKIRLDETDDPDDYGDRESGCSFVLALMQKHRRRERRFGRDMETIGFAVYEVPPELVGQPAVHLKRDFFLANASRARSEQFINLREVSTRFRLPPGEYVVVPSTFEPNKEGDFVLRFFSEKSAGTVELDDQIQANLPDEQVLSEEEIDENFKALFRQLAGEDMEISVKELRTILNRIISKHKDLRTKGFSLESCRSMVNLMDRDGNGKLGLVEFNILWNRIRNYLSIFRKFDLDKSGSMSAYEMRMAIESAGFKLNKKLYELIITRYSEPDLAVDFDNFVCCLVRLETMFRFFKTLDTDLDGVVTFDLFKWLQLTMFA
T1 sequence (P04632 1-268 partner): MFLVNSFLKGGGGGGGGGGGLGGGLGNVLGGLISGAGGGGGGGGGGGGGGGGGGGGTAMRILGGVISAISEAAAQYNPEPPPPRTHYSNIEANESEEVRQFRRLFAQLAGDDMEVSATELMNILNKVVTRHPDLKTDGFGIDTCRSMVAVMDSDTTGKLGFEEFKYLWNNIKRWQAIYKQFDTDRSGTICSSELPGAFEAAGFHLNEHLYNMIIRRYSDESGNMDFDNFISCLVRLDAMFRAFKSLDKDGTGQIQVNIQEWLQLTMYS
Protocol: (§1) The Peptide Keto-Compounds are reversible inhibitors of Calpains and other thiol proteases. […] Cathepsin B from bovine spleen was assayed using Z-Lys-4-nitrophenylphosphate as substrate.
(§2) The Ki value for the inhibition of Calpains and cathepsin B by several Peptide Keto-Compounds are shown in μM (micromolar). The values for leupeptin, which is commercially available from Calbiochem of La Jolla, Calif., are shown for comparison.

[2] = target: T2, Cathepsin B from bovine spleen (Bos taurus, UniProt P07688); test: Cathepsin B Ki (Table 1B(i)); format: biochemical; conditions: substrate Z-Lys-4-nitrophenylphosphate
T2 construct: Cathepsin B from bovine spleen was assayed using Z-Lys-4-nitrophenylphosphate as substrate; from tissue; host or cells: bovine spleen
Protocol: as §1, §2

PP Elastase = PP Elastase (Sus scrofa, UniProt P00772); test: PP Elastase KI (Table 1B(ii)); format: biochemical
Text: (§3) We tested the ability of an additional group of Peptide Keto-Compounds to inhibit several proteases in order to evaluate their specificity for Calpain.

Stability in plasma = format: in vitro ADME; conditions: unit assumed
Text: We determined the haft-life of several Peptide Keto-Compounds in both plasma and liver homogenates.

Chym = Chym (Bos taurus, UniProt P00766); test: Chym KI (Table 1B(ii)); format: biochemical
Text: as §3

Chain of PP Elastase (P00772 27-266): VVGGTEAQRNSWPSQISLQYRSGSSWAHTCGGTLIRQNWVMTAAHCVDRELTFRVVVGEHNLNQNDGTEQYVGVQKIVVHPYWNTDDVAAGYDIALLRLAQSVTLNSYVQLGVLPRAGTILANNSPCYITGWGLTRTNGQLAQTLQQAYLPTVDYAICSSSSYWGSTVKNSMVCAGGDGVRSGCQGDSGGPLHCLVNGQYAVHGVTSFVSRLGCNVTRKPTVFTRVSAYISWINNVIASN

Row | Structure (SMILES) | Ki (Cathepsin B) | Ki [1] | Ki [2] | Ki (PP Elastase) | t1/2 plasma (Stability in plasma) | Ki (Chym)
1 | CCOC(=O)C(=O)C(CC)NC(=O)[C@H](C)NC(=O)[C@H](C)NC(=O)OCc1ccccc1 (mixture of isomers) [Z-Ala-Ala-DL-Abu-COOEt, Z-Ala-Ala-DL-Abu-CO2 Et] | 10 µM | 50 µM |  |  |  | 
2 | CCCCC(NC(=O)C(CC(C)C)NC(=O)OCc1ccccc1)C(=O)C(=O)OCC (stereo not drawn) [Z-Leu-Nle-COOEt, Z-Leu-NLeu-CO2 Et] |  |  | 18 µM | 2.2 µM | 3.7 min | 
3 | CCC(NC(=O)[C@@H]1CCCN1C(=O)[C@H](C)NC(=O)[C@H](C)NC(=O)CCC(=O)OC)C(=O)C(=O)OC (mixture of isomers) [MeO-Suc-Ala-Ala-Pro-Abu-COOMe, MeO-Suc-Ala-Ala-Pro-DL-Abu-CO2 Me] | 6 µM |  |  |  |  | 
4 | CC(=O)N[C@@H](CC(C)C)C(=O)N[C@@H](CC(C)C)C(=O)N[C@H](C=O)CCCNC(=N)N [Leupeptin, Ac-Leu-Leu-Arg-H, reference compound] |  | 0.32 µM | 6 µM |  |  | 
5 | CCOC(=O)C(=O)C(Cc1ccccc1)NC(=O)C(CC(C)C)NC(=O)OCc1ccccc1 (stereo not drawn) [Z-Leu-Phe-COOEt] |  |  | > 50 µM | > 100 µM | 7.8 min | 0.025 µM
6 | CCCC(NC(=O)[C@H](CC(C)C)NC(=O)OCc1ccccc1)C(=O)C(=O)OCC (mixture of isomers) [Z-Leu-Nva-COOEt, Z-Leu-DL-Nva-COOEt] | 30 µM |  | 30 µM | 2.3 µM | 2.8 min | 160 µM
7 | CCOC(=O)C(=O)[C@H](CC)NC(=O)[C@H](CC(C)C)NC(=O)OCc1ccccc1 (racemic) [Z-Leu-Abu-COOEt, Z-Leu-DL-Abu-COOEt] |  | 0.04 µM | 14 µM | > 100 µM | 2.8 min | > 100 µM
